Experimental data reported in patent US20060106099A1, “Novel inhibitors of ubiquitin isopeptidases” (priority 2002, published 2006).
Like-named read-outs stand apart in the source and are kept apart here. Values belong to the molecule of their own block, whether it stands above or below them.

How the values were obtained:
p53 [1] = assay: p53 accumulation, ratio RKO-E6 cells/RKO cells (immunoblot, densitometry); type: cell-based, human; settings: 6 h; etoposide 50 μM, MG115, NSC-302979, DBA 20 μM, others 60 μM
Procedure: A) Accumulation of polyubiquitin. RKO-E6 cells were treated with DMSO vehicle for 24 h, 37° C., or with the concentrations of test compounds that gave 80% cell death (as determined by cell viability assay at 48 h) for 6, 12, or 24 h, 37° C. […] Schematic depicting p53 degradation via the proteasome pathway in RKO cells versus RKO-E6 cells. The activity of the HPV E6 oncoprotein hastens p53 degradation in RKO-E6 cells. ii. RKO and RKO-E6 cells were treated with vehicle, etoposide (50 μM), MG115 (20 μM), Δ12-PGJ2 (60 μM), NSC-302979 (20 μM, DBA (20 μM), curcumin (60 μM), PGB1 (60 μM), NSC-156236, (60 XM)or DPTP 60 μM for 6 h, 37° C. Lysates were fractionated by SDS-PAGE and their p53 content determined immunochemically. iii. p53 levels were measured by densitometry and the ratio of p53 protein in RKO-E6 cells/RKO cells calculated.
The medium was removed and cells lysed in 50 mM Tris, pH 7.4, 100 mM NaCl, 2 mM EDTA with 0.1% SDS, 0.1% deoxycholate, 1× complete protease inhibitor mixture. Protein concentration was measured by the Bradford method. Equal portions of the total cell lysate were fractionated from each sample (12.5 μg of protein) by SDS-PAGE. Proteins were transferred to poly(vinylidene difluoride) blocked with 5% (w/v) nonfat dry milk in Trisbuffered saline [20 mM Tris-HCl, pH 7.5, 100 mM sodium chloride, 0.1% (v/v) Tween 20]. Proteins were detected immunochemically by using primary antibodies directed against p53 (1:4000) or ubiquitin (1:1000), followed by horseradish peroxidase-conjugated secondary antibodies (1:4000). Antigen-antibody complexes were detected with enhanced chemiluminescence reagents. Gels were scanned and quantified intensities using Kodak 1D Image Analysis Software.

p53 [2] = assay: p53 accumulation ratio in RKO-E6 and RKO cells, punaglandin study; type: cell-based, human; settings: 6 h; 50 μM Etoposide, 60 μM PGA2
Procedure: To determine if punaglandins inhibit p53 degradation by disrupting the proteasome pathway, the accumulation ratio of p53 was determined in RKO and RKO-E6 cells treated with selected punaglandins, PNG 4 (8) and PNG 6 (10). Equally seeded RKO and RKO-E6 cells were treated with vehicle (0.5% DMSO), 50 μM Etoposide, 60 μM PGA2 (3), 7 μM PNG 6 (10), and 7 μM PNG 4 (8). After 6 h incubation with vehicle or drug, cells were lysed and harvester. […] of protein from each lysate was fractionated by SDS-PAGE and probed for p53 protein. The p53 band intensities were then analyzed and quantitated using densitometry. The ratio of p53 in RKO-E6 to RKO cells was calculated by dividing the amount of p53 in RKO-E6 cells by the amount in RKO cells and multiplying by 100 to give percent

p21 = p21 accumulation in RKO cells; type: cell-based, human; settings: 6 h
Procedure: It was therefore hypothesized that the isopeptidase inhibitors PNG 4 (8) and PNG 6 (10) would cause a similar accumulation of p21 protein. RKO cells were treated with 2 μM and 7 μM of 8 and 10, 50 μM Etoposide, 60 μM PGA2 (3), or 0.5% DMSO for 6 h before harvesting. Protein was then quantitated, fractionated by SDS-PAGE, and probed for p21 protein. The p21 band intensities were then analyzed and quantitated using densitometry. The ratio of p21 in treated cells to control cells was calculated by dividing the amount of p21 in treated cells by the amount in control cells and multiplied by 100 to give percent.

RKO cells = assay: MTT cell viability assay, RKO cells
Procedure: (§1) Cell viability was measured with MTT reagent as described in materials and methods.
(§2) Cell viability was detected by the MTT assay. Briefly, 1×10^5 cells were incubated per well of a sterile, 96-well assay plate with 0-60 μM of test compounds for 48 hours. MTT reagent was added to each well, final concentration of 0.5 mg/mL, and incubated for an additional 3 hours. The media was aspirated and remaining MTT reagent from each well and added 100 μL of HCl:isopropanol (1:24). The absorbance of each sample was measured at 405 nm.

RKO-E6 cells = assay: MTT cell viability assay, RKO-E6 cells; settings: for EC50: Homo sapiens, RKOE6, 48 h, read-out: Cytotoxic Potency (EC50) RKO-E6
Procedure: as §1, §2

HCT 116 +/+ cells [3] = assay: MTT cell viability assay, HCT 116 p53 +/+ cells; settings: for EC50: Homo sapiens, HCT-116, 48 h, read-out: Cytotoxic Potency (EC50) HCT +/+
HCT 116 −/− cells = assay: MTT cell viability assay, HCT 116 p53 −/− cells; settings: for EC50: Homo sapiens, HCT-116, 48 h, read-out: Cytotoxic Potency (EC50) HCT −/−
Procedure: as §1, §2

ubiquitin isopeptidases = assay: In vitro isopeptidase activity in HCT 116 lysates, Ub-PEST; type: biochemical, human; settings: 2-200 μM, 45 min
Procedure: Isopeptidase Assay. It was hypothesized that the punaglandins would inhibit ubiquitin-isopeptidase activity of the proteasome pathway as does the prostaglandin, Δ^12-PGJ2 (1), but with greater potency because of the chlorinated C-10. To validate this theory, cellular isopeptidase enzymatic activity was measured in vitro after treatment with individual punaglandins, PNG 2 (6), PNG 3 (7), and Z-PNG 4 (9) and in vivo after individual treatment with PNG 4 (8) and PNG 6 (10). This activity was determined utilizing the simple isopeptidase substrate, ubiquitin-PEST (Ub-PEST), a full/length ubiquitin (Ub) molecule fused with an 18-amino acid C-terminal peptide extension that most isopeptidases use as a substrate. The polypeptide extension contains regions rich in Pro (P), Glu (E), Ser (S), and Thr (T) residues called PEST motifs that are responsible for rapid degradation of these and other unstable proteins. Ub isopeptidases specifically cleave this peptide extension, yielding free, full-length Ub. Both the fused Ub-PEST (10.5 kDa) and the cleaved, free Ub (8.5 kDa) can be observed via immunochemical detection.
In Vitro Isopeptidase Activity. PNG 2 (6), PNG 3 (7), and Z-PNG 4 (9) were initially analyzed for isopeptidase activity in vitro in HCT 116 lysates. Cells were lysed with isopeptidase activity buffer and protein concentration adjusted to 0.3 mg/mL per sample. Each sample was subsequently incubated with 2 μM, 6 μM, 20 μM, 60 μM, or 200 μM of PNG 2 (6), PNG 3 (7), Z-PNG 4 (9), Δ^12-PGJ2 (1), and PGA1 (2) in addition to 50 μg/ml of Ub-PEST. Negative control cells were treated with vehicle (0.5% DMSO) and equivalent Ub-PEST. […] The amount of fused Ub-PEST and free Ub product was determined by SDS-PAGE fractionation.

HCT 116 +/+ cells [4] = settings: Mullally et al., University of Utah, 2003; read-out: EC50 in competent HCT 116 cells; cited from earlier work
isopeptidase = settings: cited from earlier work
caspase-3 = assay: Caspase-3 activity in RKO cells (DEVD-AMC); type: cell-based, human; settings: PNG 4 0.5 μM, PNG 6 1 μM, Taxol 1 μM
Procedure: To determine if selected punaglandins, PNG 4 (8) and PNG 6 (10) also induce apoptosis in RKO cells in a time dependent manner, caspase-3 activity was determined. During apoptosis the caspases, a family of cysteinyl aspartate-specific proteases, are activated. These enzymes cleave specific substrates resulting in biochemical and morphological changes associated with apoptosis. Therefore, detection of activated caspases can be used as a biochemical marker for apoptosis. Caspase-3 has substrate specificity for the amino acid sequence Asp-Glu-Val-Asp (DEVD), cleaving after Asp, and therefore caspase activity can be measured by monitoring cleavage of the substrate DEVD-AMC (Asp-Glu-Val-Asp-7-amino-4-[…]).
RKO cells were treated for 4, 8, and 12 h with PNG 4 (8) at 0.5 μM and PNG 6 (10) at 1 μM. Taxol, a known apoptotic inducer at 1 μM, was used as a positive control, and negative control cells were treated with vehicle (0.5% DMSO). Caspase-3 activity rose steadily as expected from 4-12 h in cells treated with PNG 4 (8), PNG 6 (10), and Taxol but remained constant in the untreated control cells.

[5] = Homo sapiens, RKO, 48 h, read-out: Cytotoxic Potency (EC50) RKO

Compound: COc1cc([C@@H]2c3cc4c(cc3[C@@H](O[C@@H]3O[C@@H]5CO[C@@H](C)O[C@H]5[C@H](O)[C@H]3O)[C@H]3COC(=O)[C@H]23)OCO4)cc(OC)c1O [Etoposide, etoposide]
- ratio of p53 protein [RKO-E6 cells/RKO cells] (p53 [1]): 0.1
- p53 in RKO-E6 cells as percent of RKO cells (p53 [2]): 50%
- p21 protein in treated cells relative to control cells (p21; 50 µM): 290%
- EC50 (RKO cells; [5]): 7.3 ± 1.6 µM
- potency in RKO-E6 cells less than in RKO cells (RKO-E6 cells; 48 h, MTT): ~3 fold
- EC50 (RKO-E6 cells): 20 ± 2.7 µM
- EC50 (HCT 116 +/+ cells [3]): 7.8 ± 3.9 µM
- potency in HCT 116 −/− cells less than in HCT 116 +/+ cells (HCT 116 −/− cells; 48 h, MTT): ~4 fold
- EC50 (HCT 116 −/− cells): 29 ± 6.8 µM

- inhibition of Ub-PEST degradation in HCT 116 lysates (ubiquitin isopeptidases): no detectable inhibition
Compound: CCCCC[C@H](O)/C=C/[C@H]1C=CC(=O)[C@@H]1CCCCCCC(=O)O [PGA1]
- EC50 (HCT 116 +/+ cells [4]): 11.6 µM
- isopeptidase inhibition relative to Δ12-PGJ2 (isopeptidase): significantly less potent
- EC50 (RKO cells; read-out: EC50 in RKO cell lines, prostaglandins for comparison, comparison values in the text): 33.6 µM

Compound: CCCCC[C@H](O)/C=C/[C@H]1C=CC(=O)[C@@H]1C/C=C\CCCC(=O)O [PGA2]
- p53 in RKO-E6 cells as percent of RKO cells (p53 [2]): 60%
- p21 protein in treated cells relative to control cells (p21; RKO cells, 50 μM Etoposide, 60 μM PGA2, punaglandins 2 and 7 μM): 10%
- isopeptidase inhibition relative to Δ12-PGJ2 (isopeptidase): significantly less potent

Compound: CC(=O)O[C@H]1C(=O)[C@@]2(C)[C@H]([C@H](OC(=O)c3ccccc3)[C@]3(O)C[C@H](OC(=O)[C@H](O)[C@@H](NC(=O)c4ccccc4)c4ccccc4)C(C)=C1C3(C)C)[C@]1(OC(C)=O)CO[C@@H]1C[C@@H]2O [Taxol, paclitaxel]
- Caspase-3 activity from 4-12 h (caspase-3): rose steadily
- cell death in RKO compared with RKO-E6 cells (RKO cells; 48 h, MTT, isogenic pair): equivalent
- EC50 (RKO cells; [5]): 0.004 µM
- EC50 (RKO-E6 cells): 0.004 µM
- cell death in HCT 116 +/+ compared with HCT 116 −/− cells (HCT 116 +/+ cells [3]; 48 h, MTT, isogenic pair): equivalent
- EC50 (HCT 116 +/+ cells [3]): 0.004 µM
- EC50 (HCT 116 −/− cells): 0.005 µM
